The target in one assay is JAK1 (Homo sapiens (Human), UniProt P23458). Put plainly: pSTAT3 Cell Assay (MSD, TF1 cells). The assay is classed as cell-based. On the procedure: The inhibitory potency of compounds of the disclosure against the JAK1 kinase activity on STAT3 was evaluated using an MSD-platform plate-based assay format. TF1 cells natively expressing STAT3 and JAK1 were serum-starved to reduce background phosphorylation levels, then cells were treated with compounds of the disclosure for 1 hour with a 10-point four-fold dilution series starting at 10 μM. Cells were then stimulated with 30 ng/mL interleukin 6 (IL-6) for 15 minutes. Cells were lysed and pSTAT3 levels were quantitated using an MSD plate-based assay with anti-STAT3 antibodies. The data were normalized and the percent activity versus log concentration of compound was fitted with a 4-parameter logistic model to generate IC50 curves.

The target of the next assay is Tyk2 (Homo sapiens (Human), UniProt P29597). Put plainly: pSTAT4 Cell Assay (MSD, NK92 cells). The assay is classed as cell-based.
The target of the next assay is JH2 domain of human Tyk2 (Homo sapiens (Human), UniProt P29597). Put plainly: JH2 Biochemical Assay (TR-FRET probe displacement). The assay is classed as binding. (Time-resolved FRET reads energy transfer from a long-lived donor to a nearby acceptor.)
[1] abbreviates: JH2 domain of human Tyk2, TR-FRET probe displacement.
The mark [2] stands for this setting: TR-FRET probe displacement, JH2 domain of human Tyk2.
Where [3] appears, read: TR-FRET probe displacement, JH2 domain.

Counter-ions that a name gives are not always drawn. Like-named read-outs stand apart in the source and are kept apart here.

JAK1, sequence (P23458 whole entry): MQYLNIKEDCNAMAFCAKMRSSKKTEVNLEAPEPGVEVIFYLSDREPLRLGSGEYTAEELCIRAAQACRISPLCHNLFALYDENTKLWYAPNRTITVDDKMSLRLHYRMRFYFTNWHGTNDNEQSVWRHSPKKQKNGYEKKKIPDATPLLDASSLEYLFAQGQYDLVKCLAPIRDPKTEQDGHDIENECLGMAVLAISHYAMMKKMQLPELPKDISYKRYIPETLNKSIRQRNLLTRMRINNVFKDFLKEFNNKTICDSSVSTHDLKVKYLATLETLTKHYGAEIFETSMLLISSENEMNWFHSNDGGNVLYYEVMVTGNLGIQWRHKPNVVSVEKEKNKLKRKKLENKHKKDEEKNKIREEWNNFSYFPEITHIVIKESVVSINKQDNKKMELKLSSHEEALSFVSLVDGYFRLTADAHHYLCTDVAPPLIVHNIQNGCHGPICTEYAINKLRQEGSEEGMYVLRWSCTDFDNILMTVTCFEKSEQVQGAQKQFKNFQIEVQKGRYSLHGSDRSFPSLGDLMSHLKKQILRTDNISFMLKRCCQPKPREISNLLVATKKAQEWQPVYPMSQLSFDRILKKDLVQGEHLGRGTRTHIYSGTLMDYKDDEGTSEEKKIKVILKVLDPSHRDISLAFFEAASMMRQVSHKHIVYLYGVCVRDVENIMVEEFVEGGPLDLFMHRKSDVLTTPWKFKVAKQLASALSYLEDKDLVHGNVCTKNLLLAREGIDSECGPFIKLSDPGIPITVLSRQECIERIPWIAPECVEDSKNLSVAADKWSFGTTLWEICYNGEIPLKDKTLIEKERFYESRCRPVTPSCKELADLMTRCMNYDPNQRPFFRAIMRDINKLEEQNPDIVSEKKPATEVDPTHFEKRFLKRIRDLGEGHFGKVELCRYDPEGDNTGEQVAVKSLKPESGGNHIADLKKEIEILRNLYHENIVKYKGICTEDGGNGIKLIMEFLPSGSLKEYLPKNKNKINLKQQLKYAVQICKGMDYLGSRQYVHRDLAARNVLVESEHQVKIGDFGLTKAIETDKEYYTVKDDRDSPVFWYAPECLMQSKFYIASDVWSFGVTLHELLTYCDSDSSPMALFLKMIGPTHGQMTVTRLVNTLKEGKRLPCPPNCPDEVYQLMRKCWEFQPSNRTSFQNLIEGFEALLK
Tyk2, sequence (P29597 whole entry, the tested form may be a part): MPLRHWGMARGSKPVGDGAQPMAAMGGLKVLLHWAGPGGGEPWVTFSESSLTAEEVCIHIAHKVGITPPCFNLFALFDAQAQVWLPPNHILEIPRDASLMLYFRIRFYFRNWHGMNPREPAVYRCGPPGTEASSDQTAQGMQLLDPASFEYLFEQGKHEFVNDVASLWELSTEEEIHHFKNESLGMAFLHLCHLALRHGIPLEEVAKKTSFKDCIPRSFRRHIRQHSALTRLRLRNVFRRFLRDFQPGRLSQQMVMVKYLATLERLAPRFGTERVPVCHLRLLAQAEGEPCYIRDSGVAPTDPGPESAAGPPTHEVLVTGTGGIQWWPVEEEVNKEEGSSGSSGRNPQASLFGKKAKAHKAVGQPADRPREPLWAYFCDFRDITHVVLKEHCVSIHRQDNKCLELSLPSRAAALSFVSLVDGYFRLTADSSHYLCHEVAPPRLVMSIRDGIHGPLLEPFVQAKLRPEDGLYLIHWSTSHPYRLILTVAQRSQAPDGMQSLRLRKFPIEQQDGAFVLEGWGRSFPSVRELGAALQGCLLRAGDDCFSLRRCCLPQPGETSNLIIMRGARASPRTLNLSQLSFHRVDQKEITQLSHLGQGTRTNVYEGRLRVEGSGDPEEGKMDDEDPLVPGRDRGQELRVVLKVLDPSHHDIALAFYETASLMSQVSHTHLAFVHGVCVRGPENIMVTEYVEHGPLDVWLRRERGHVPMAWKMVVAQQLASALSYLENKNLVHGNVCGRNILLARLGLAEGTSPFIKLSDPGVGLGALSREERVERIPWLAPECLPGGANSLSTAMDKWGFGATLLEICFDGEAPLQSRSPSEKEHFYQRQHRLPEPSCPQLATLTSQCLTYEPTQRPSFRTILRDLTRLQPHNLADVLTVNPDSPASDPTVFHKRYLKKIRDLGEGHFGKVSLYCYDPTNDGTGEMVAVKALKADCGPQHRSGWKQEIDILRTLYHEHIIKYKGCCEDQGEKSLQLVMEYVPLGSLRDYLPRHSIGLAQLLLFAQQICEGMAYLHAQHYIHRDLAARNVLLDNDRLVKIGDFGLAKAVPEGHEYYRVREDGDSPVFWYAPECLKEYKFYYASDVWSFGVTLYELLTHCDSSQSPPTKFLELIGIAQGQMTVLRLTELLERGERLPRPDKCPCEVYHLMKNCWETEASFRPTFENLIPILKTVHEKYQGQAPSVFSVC
JH2 domain of human Tyk2, sequence (P29597 575-876): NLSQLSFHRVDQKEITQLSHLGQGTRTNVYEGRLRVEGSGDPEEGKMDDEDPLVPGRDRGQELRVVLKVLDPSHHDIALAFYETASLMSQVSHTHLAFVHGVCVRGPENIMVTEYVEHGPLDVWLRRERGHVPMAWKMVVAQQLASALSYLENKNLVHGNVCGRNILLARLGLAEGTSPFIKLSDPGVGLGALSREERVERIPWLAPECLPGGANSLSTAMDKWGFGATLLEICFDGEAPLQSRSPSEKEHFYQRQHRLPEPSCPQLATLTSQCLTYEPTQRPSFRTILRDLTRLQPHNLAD

For orientation: IC50 means the point on the concentration scale where inhibition reaches its midpoint. Read a high IC50 as weaker potency in that assay. Turning to `COCn1ncc(-c2cnc(NC(C)=O)cc2Nc2cc(C)nc(C(C)(F)F)n2)n1` [Example 608, N-(4-((2-(1,1-difluoroethyl)-6-methylpyrimidin-4-yl)amino)-5-(2-(methoxymethyl)-2H-1,2,3-triazol-4-yl)pyridin-2-yl)acetamide], the half-maximal inhibitory concentration (IC50) on JAK1 (IL-6 stimulated, MSD) was at least 1000 nM; on Tyk2 (MSD), at most 10 nM; at JH2 domain of human Tyk2 (setting [1]) it was at most 10 nM.

With `COCc1ccc(-c2cnc(NC(C)=O)cc2Nc2cc(C)nc(C34CC(CO3)C4)n2)nc1` [Example 280, N-(4′-((2-(2-oxabicyclo[2.1.1]hexan-1-yl)-6-methylpyrimidin-4-yl)amino)-5-(methoxymethyl)-[2,3′-bipyridin]-6′-yl)acetamide], the IC50 against JAK1 (IL-6 stimulation, MSD) was at least 1000 nM; at Tyk2 (MSD) it was at most 10 nM; at JH2 domain of human Tyk2 (setting [2]) it was at most 10 nM.

For `CNc1ccc(-c2cnc(NC(C)=O)cc2Nc2ccnc(C(C)(F)F)n2)nc1` [Example 857, N-(4′-((2-(1,1-difluoroethyl)pyrimidin-4-yl)amino)-5-(methylamino)-[2,3′-bipyridin]-6′-yl)acetamide], the IC50 was at least 1000 nM at JAK1 (IL-6 stimulated), at most 10 nM on Tyk2 and at most 10 nM at JH2 domain of human Tyk2 (setting [3]).

On to `CC(=O)Nc1cc(Nc2ccnc(C(C)(F)F)n2)c(-c2nc3c(s2)CN(C)CC3)cn1` [Example 798, N-(4-((2-(1,1-difluoroethyl)pyrimidin-4-yl)amino)-5-(5-methyl-4,5,6,7-tetrahydrothiazolo[5,4-c]pyridin-2-yl)pyridin-2-yl)acetamide], for which the IC50 against JAK1 (IL-6 stimulated) is at least 1000 nM; against Tyk2 it was at most 10 nM; on JH2 domain of human Tyk2 (setting [3]), at most 10 nM.

Consider `CC(=O)Nc1cc(Nc2cc(C)nc(C(C)(F)F)n2)c(-c2cccc([C@H]3CN(C)CCO3)n2)cn1` (single isomer, unassigned) [Example 642, (R)-N-(4′-((2-(1,1-difluoroethyl)-6-methylpyrimidin-4-yl)amino)-6-(4-methylmorpholin-2-yl)-[2,3′-bipyridin]-6′-yl)acetamide or (S)-N-(4′-((2-(1,1-difluoroethyl)-6-methylpyrimidin-4-yl)amino)-6-(4-methylmorpholin-2-yl)-[2,3′-bipyridin]-6′-yl)acetamide], for which the IC50 against JAK1 (IL-6 stimulated, MSD) was at least 1000 nM; on Tyk2 (MSD), at most 10 nM; on JH2 domain of human Tyk2 (setting [1]), at most 10 nM.

In the case of `COCCOc1nccc(-c2cnc(NC(C)=O)cc2Nc2cc(C)nc(C(C)(F)F)n2)n1` [Example 776, N-(4-((2-(1,1-difluoroethyl)-6-methylpyrimidin-4-yl)amino)-5-(2-(2-methoxyethoxy)pyrimidin-4-yl)pyridin-2-yl)acetamide], the IC50 against JAK1 (IL-6 stimulated) was at least 1000 nM; on Tyk2, at most 10 nM; on JH2 domain of human Tyk2 (setting [3]), at most 10 nM.

Regarding `CCc1cc(Nc2cc(NC(C)=O)ncc2-c2ccc(CN(C)C)cn2)nc(C(C)(F)F)n1` [Example 266, N-(4′-((2-(1,1-difluoroethyl)-6-ethylpyrimidin-4-yl)amino)-5-((dimethylamino)methyl)-[2,3′-bipyridin]-6′-yl)acetamide], the half-inhibitory concentration (IC50) on JAK1 (IL-6 stimulation, MSD) is 100 to 1000 nM; against Tyk2 (MSD), at most 10 nM; at JH2 domain of human Tyk2 (setting [2]) it was at most 10 nM.

`CC(=O)Nc1cc(Nc2cc(C)nc(C34COC(C3)C4)n2)c(-c2ccncn2)cn1` [Example 748, N-(4-((2-(2-oxabicyclo[2.1.1]hexan-4-yl)-6-methylpyrimidin-4-yl)amino)-5-(pyrimidin-4-yl)pyridin-2-yl)acetamide]: the IC50 is at least 1000 nM against JAK1 (IL-6 stimulated), at most 10 nM at Tyk2 and at most 10 nM at JH2 domain of human Tyk2 (setting [3]).

Consider `COCCc1cnc(-c2cnc(NC(C)=O)cc2Nc2cc(C)nc(C(C)(F)F)n2)s1` [Example 756, N-(4-((2-(1,1-difluoroethyl)-6-methylpyrimidin-4-yl)amino)-5-(5-(2-methoxyethyl)thiazol-2-yl)pyridin-2-yl)acetamide], for which the half-inhibitory concentration (IC50) is at least 1000 nM at JAK1 (IL-6 stimulated), 100 to 1000 nM against Tyk2 and at most 10 nM at JH2 domain of human Tyk2 (setting [3]).

`CC(=O)Nc1cc(Nc2cc(C)nc(C34COC(C3)C4)n2)c(-c2cc(C)ncn2)cn1` [Example 746, N-(4-((2-(2-oxabicyclo[2.1.1]hexan-4-yl)-6-methylpyrimidin-4-yl)amino)-5-(6-methylpyrimidin-4-yl)pyridin-2-yl)acetamide]: the IC50 against JAK1 (IL-6 stimulated) was at least 1000 nM; on Tyk2, 100 to 1000 nM; at JH2 domain of human Tyk2 (setting [3]) it was at most 10 nM.

Turning to `CC(=O)Nc1cc(Nc2ccnc(C(C)(F)F)n2)c(-c2cn3c(n2)CCCC3)cn1` [Example 780, N-(4-((2-(1,1-difluoroethyl)pyrimidin-4-yl)amino)-5-(5,6,7,8-tetrahydroimidazo[1,2-a]pyridin-2-yl)pyridin-2-yl)acetamide], the IC50 against JAK1 (IL-6 stimulated) was at least 1000 nM; against Tyk2, at most 10 nM; at JH2 domain of human Tyk2 (setting [3]), at most 10 nM.

`CC(=O)Nc1cc(Nc2cc(C)nc(C(C)(F)F)n2)c(-c2cnc(C(F)F)cn2)cn1` [Example 921, N-(4-((2-(1,1-difluoroethyl)-6-methylpyrimidin-4-yl)amino)-5-(5-(difluoromethyl)pyrazin-2-yl)pyridin-2-yl)acetamide]: the IC50 against JAK1 (IL-6 stimulated) is at least 1000 nM; at Tyk2, 10 to 100 nM; at JH2 domain of human Tyk2 (setting [3]) it was at most 10 nM.

For `CC(=O)Nc1cc(Nc2cc(C)nc(C(C)(F)F)n2)c(C(F)(F)C2CC2)cn1` [Example 153, N-(5-(cyclopropyldifluoromethyl)-4-((2-(1,1-difluoroethyl)-6-methylpyrimidin-4-yl)amino)pyridin-2-yl)acetamide], the IC50 against JAK1 (IL-6 stimulation, MSD) is at least 1000 nM; on Tyk2 (MSD) it was at most 10 nM; on JH2 domain of human Tyk2 (setting [2]), at most 10 nM.

For `COc1ccc(-c2cnc(NC(C)=O)cc2Nc2ccnc(C(C)(F)F)n2)nn1` [Example 214, N-(4-((2-(1,1-difluoroethyl)pyrimidin-4-yl)amino)-5-(6-methoxypyridazin-3-yl)pyridin-2-yl)acetamide trifluoroacetate], the concentration for half-maximal inhibition (IC50) was at least 1000 nM against JAK1 (IL-6 stimulation, MSD); at most 10 nM against Tyk2 (MSD); at most 10 nM at JH2 domain of human Tyk2 (setting [2]).

As to `CC(=O)Nc1cc(Nc2cc(C)nc(C(C)(F)F)n2)c(-c2cn3c(n2)COCC3)cn1` [Example 768, N-(4-((2-(1,1-difluoroethyl)-6-methylpyrimidin-4-yl)amino)-5-(5,6-dihydrO8H-imidazo[2,1-c][1,4]oxazin-2-yl)pyridin-2-yl)acetamide], the figures for the half-inhibitory concentration (IC50) at JAK1 (IL-6 stimulated), against Tyk2 and at JH2 domain of human Tyk2 (setting [3]) were at least 1000 nM, at most 10 nM and at most 10 nM, respectively.

For the compound `CCc1cc(Nc2cc(NC(C)=O)ncc2-c2ccc(NC)cn2)nc(C(C)(F)F)n1` [Example 859, N-(4′-((2-(1,1-difluoroethyl)-6-ethylpyrimidin-4-yl)amino)-5-(methylamino)-[2,3′-bipyridin]-6′-yl)acetamide], the IC50 was at least 1000 nM against JAK1 (IL-6 stimulated), at most 10 nM at Tyk2 and at most 10 nM at JH2 domain of human Tyk2 (setting [3]).

For the compound `CC(=O)Nc1cc(Nc2cc(C)nc(C(C)(F)F)n2)c(-c2ccc(N3CCN(C)CC3)cn2)cn1` [Example 651, N-(4′-((2-(1,1-difluoroethyl)-6-methylpyrimidin-4-yl)amino)-5-(4-methylpiperazin-1-yl)-[2,3′-bipyridin]-6′-yl)acetamide], the IC50 was at least 1000 nM against JAK1 (IL-6 stimulated, MSD) and at most 10 nM at Tyk2 (MSD).

Consider `COc1nc(C)cc(Nc2cc(NC(C)=O)ncc2-c2ccn(C)n2)n1` [Example 551, N-(4-((2-methoxy-6-methylpyrimidin-4-yl)amino)-5-(1-methyl-1H-pyrazol-3-yl)pyridin-2-yl)acetamide], for which the half-maximal inhibitory concentration (IC50) against Tyk2 (MSD) is 10 to 100 nM; at JH2 domain of human Tyk2 (setting [1]) it was at most 10 nM.

Turning to `CC(=O)Nc1cc(Nc2ccnc(C(C)(F)F)n2)c(-c2nc3c(s2)CCN(C)C3)cn1` [Example 797, N-(4-((2-(1,1-difluoroethyl)pyrimidin-4-yl)amino)-5-(5-methyl-4,5,6,7-tetrahydrothiazolo[4,5-c]pyridin-2-yl)pyridin-2-yl)acetamide], the IC50 on Tyk2 and on JH2 domain of human Tyk2 (setting [3]) was at most 10 nM each time.

On to `CC(=O)Nc1cc(Nc2ccnc(C(C)(F)F)n2)c(-c2ccc(CN3CCCC3)cn2)cn1` [Example 878, N-(4′-((2-(1,1-difluoroethyl)pyrimidin-4-yl)amino)-5-(pyrrolidin-1-ylmethyl)-[2,3′-bipyridin]-6′-yl)acetamide], for which the concentration for half-maximal inhibition (IC50) at Tyk2 and at JH2 domain of human Tyk2 (setting [3]) was at most 10 nM each time.

In the case of `CCOc1cnc(NC(=O)CC)cc1Nc1cc(C)nc(C(C)(F)F)n1` [Example 9, N-(4-((2-(1,1-difluoroethyl)-6-methylpyrimidin-4-yl)amino)-5-ethoxypyridin-2-yl)propionamide], the 50% inhibitory concentration (IC50) against Tyk2 (MSD) is 10 to 100 nM; at JH2 domain of human Tyk2 (setting [2]) it was at most 10 nM.

For `CCc1noc(COc2cnc(NC(C)=O)cc2Nc2cc(C)nc(C(C)(F)F)n2)n1` [Example 331, N-(4-((2-(1,1-difluoroethyl)-6-methylpyrimidin-4-yl)amino)-5-((3-ethyl-1,2,4-oxadiazol-5-yl)methoxy)pyridin-2-yl)acetamide], the results for the half-inhibitory concentration (IC50) on Tyk2 (MSD) and at JH2 domain of human Tyk2 (setting [2]) were 100 to 1000 nM and 10 to 100 nM, respectively.

`CC(=O)Nc1cc(Nc2cc(C)nc(C(C)(F)F)n2)c(-n2ccc(C)n2)cn1` [Example 597, N-(4-((2-(1,1-difluoroethyl)-6-methylpyrimidin-4-yl)amino)-5-(3-methyl-1H-pyrazol-1-yl)pyridin-2-yl)acetamide]: the IC50 against Tyk2 (MSD) is 10 to 100 nM; at JH2 domain of human Tyk2 (setting [1]), at most 10 nM.

Regarding `CC(=O)Nc1cc(Nc2cc(C)nc(C(C)(F)F)n2)c(OC[C@H]2CCC[C@@H](C)O2)cn1` (stereo in doubt) [Example 418, Cis-rac-N-(4-((2-(1,1-difluoroethyl)-6-methylpyrimidin-4-yl)amino)-5-(((2R,6R)-6-methyltetrahydro-2H-pyran-2-yl)methoxy)pyridin-2-yl)acetamide], the IC50 against Tyk2 (MSD) and at JH2 domain of human Tyk2 (setting [1]) was at most 10 nM in each case.

The record behind these values is patent US20260028365A1 (BIOGEN MA INC., priority 2022, published 2026).
